Assay results published in US8173843B2, “Amphiphilic derivatives of α-C-phenyl-N-tert-butylnitrone” (TS Pharma, priority 2006, dated 2012).

How the values were obtained:
[1] = test system: Sprague-Dawley rat embryo cortex cell cultures; assay: Hydrogen peroxide-induced apoptotic cell death, viability of cortex cell cultures; format: cell-based; settings: compound at 10 μM; hydrogen peroxide 50 to 200 μM; preliminary results
Procedure: (§1) The biological tests were carried out according to the procedures described in Journal of Neurochemistry, 2005, 95, 962-973. In order to evaluate the potentialities of these novel derivatives, we measured the ability of compound 10 to reduce and prevent apoptotic cell death phenomena. Hydrogen peroxide is very widely used as an apoptosis inducer in many cell models. Thus, the viability of Sprague-Dawley rat embryo cortex cell cultures is greatly impaired after treatment with hydrogen peroxide at concentrations of 50 to 200 μM. […] These same cultures were also subjected to a mitochondria-selective oxidative stress inducer, doxorubicin (Kotamraju S.; Konorev E. A.; Joseph J.; Kalyanaraman B. J. Biol. Chem. 2000, 275, 33 585-33 592). The observations are the same as for the induction with hydrogen peroxide. […] These preliminary results underline the great ability of compound 10 to prevent apoptosis phenomena induced at varying cell levels. […] A dysfunction of the mitochondrion, the central organelle in the control of apoptosis is involved in a very wide variety of pathological conditions. The anti-apoptotic properties of derivative 10 combined with its incorporation into the mitochondrion make it possible to envision its use in the fields mentioned above.

[2] = test system: Sprague-Dawley rat embryo cortex cell cultures; assay: Doxorubicin (mitochondria-selective oxidative stress inducer)-induced cell death, viability of cortex cell cultures; format: cell-based; settings: doxorubicin-induced mitochondrial oxidative stress; preliminary results
Procedure: as §1

[3] = test system: gerbils; settings: after injection in gerbils; Oliver et al. 1990; cited from earlier work
[4] = literature; cited from earlier work
[5] = oxidative aging tests; Poeggeler et al. 2005; cited from earlier work

Row | SMILES | restoration of viability of cultures after hydrogen peroxide treatment [1] | protection against cell death / cell viability under doxorubicin [2] | damage caused by cerebral ischemia [3] | neuroprotective activity compared with PBN [4] | biological activity compared with PBN [5]
1 | CC(C)(C)[N+]([O-])=Cc1ccccc1 [PBN, α-C-phenyl-N-tert-butylnitrone] | very incompletely restore the viability | only a partial protection against cell death | decrease in the damage caused by cerebral ischemia |  | 
2 | CCCCCCCC(=O)NCc1ccc(/C=[N+](\[O-])C(C)(C)CNC(=O)C(O)[C@H](O)[C@H](O[C@@H]2OC(CO)[C@H](O)C(O)C2O)C(O)CO)cc1 (stereo partly shown) [Compound 10] | completely restore the viability | allows the cell viability to be completely maintained |  |  | 
3 | CC(C)(C)[N+]([O-])=Cc1ccc(S(=O)(=O)[O-])cc1S(=O)(=O)[O-].[Na+].[Na+] [NXY-059] |  |  |  | neuroprotective activity greater than PBN | 
4 | CCCCCCCC(=O)NCC(C)(C)[N+]([O-])=Cc1ccc(CNC(=O)[C@H](OC(C)=O)[C@@H](OC(C)=O)[C@H](O[C@@H]2O[C@H](COC(C)=O)[C@H](OC(C)=O)[C@H](OC(C)=O)[C@H]2OC(C)=O)[C@@H](COC(C)=O)OC(C)=O)cc1 [LPBNAH, N-[4-(octa-O-acetyllactobionamidomethylene)benzylidene]-N-[1,1-dimethyl-2-(N-octanoyl)amido]ethylamine N-oxide] |  |  |  |  | biological activity greater than that of PBN
